From US9914698B2, “Stearoyl amino acid salt and preparation method and application thereof” (Shanghai Jiaotong University School of Medicine, priority 2014, dated 2018)
Where two headings read alike, the source gives them in different places. Marks after values point to notes of the source that are not given here.

Key:
[1] = tested on: gerbil model with global ischemia reperfusion injury; assay: Neurobehavioral scores of acute cerebral ischemia reperfusion model; type: in vivo; details: positive control group, dose not given; ischemic model group 3.1+/−0.32
Source text: Taking N-stearoyl amino acid potassium NsTyr-2K as an example, a gerbil model with global ischemia reperfusion injury was used to assess the protective role of NsTyr-2K against neurobehavioral disorder caused by cerebral ischemia-reperfusion injury by examining the changing behavioral indexes such as spatial, learning and cognitive functions in the perspective of overall animals during passive dark avoidance test and Morris water maze test.

[2] = Absorption kinetics after intragastric administration; type: in vivo; details: both sexes, Sprague-Dawley (SD), rat, blood; SD rats, oral 200 mg/kg
Description: Ten SD rats weighing 150-180 g were randomly divided into two groups, each comprising five, with males and females combined. After intragastric administration of 200 mg/kg of saline solution containing NsTyr and NsTyr-2K, the average blood concentration-time curve thereof was respectively shown in FIG. 2.

[3] = Equilibrium solubility, shake-flask method; type: physicochemical
Description: (§1) The shake-flask method was used to test the equilibrium solubility of NsTyr, NsTyr-2K, NsTyr-2Na in water at 37° C. […] The apparent lipid-water distribution coefficient log p of NsTyr-2K, NsTyr-2Na was respectively 1.512 and 1.477. Under different pHs, see Table 1 for the equilibrium solubility test data of NsTyr-2K, NsTyr-2Na; and see Table 2 for the apparent lipid-water distribution coefficient of NsTyr-2K and NsTyr-2Na.

obese mouse model [4] = assay: H&E staining of fat and liver tissue of obese mice; type: in vivo, C57BL/6 mice
Description: 2. Method: Epididymal fat and liver were fixed in 10% neutral formaldehyde solution for 48 h. After paraffin embedding they were made into […] of slices, and stained with hematoxylin-eosin (H&E staining). Light microscope was used to observe the size of fat cells, the structure of liver cells and adipose accumulation.

obese mouse model [5] = assay: Administration test in obese mouse model (weight, food intake); type: in vivo, C57BL/6 mice
Description: 2. Method: 60 C57BL/6 mice (aged 3 weeks, male, with a weight of 8.3 g each) were adaptively fed with 12% kcal normal diet for one week, and randomly divided into 6 groups, each consisting of 10 mice. One group (ND) continued to be fed with normal diet, the rest five groups (HFD I˜V) were fed with 45% kcal high-fat diet.
In the whole test process the mice kept raised in the following environment: temperature: 23±3° C.; humidity: 50±5%; bright and dim alternating cycle: 12 h/12 h; freely available to diet and drinking water in the whole process.
2. Method: ND and HFD I were respectively taken as normal and high-fat diet blank control groups, and were treated with 0.5% sodium carboxymethyl cellulose solution (5 ml/kg/day); HFD II˜IV were taken as groups of recipients, and were treated with NST-2K (20, 60, 100 mg/kg/day); HFD V was taken as a positive control group, and treated with Orlistat (100 mg/kg/day). All the above drugs dissolved in aqueous solution of 0.5% sodium carboxymethyl cellulose and were administered. The administration remained four weeks. In each week average weight and food intake were kept in record until the phase of administration ended.

obese mouse model [6] = assay: Collection and observation of fat and liver tissues of obese mice; type: in vivo, C57BL/6 mice; details: 100 mg/kg/day
Source text: 2. Method: After administration test in Embodiment 8, the mice were denied food overnight. Their abdominal cavity was opened to observe abdominal fat content in each group of the mice. Epididymal fat, perirenal fat and liver were separated and weighed.

[7] = tested on: APP/PS1/TAU transgenic mice; assay: Open-field test; type: in vivo
Source text: (§2) Materials for open-field test: a spontaneous activity watch box (80×80×30), on top of which is furnished with a fluorescent lamp as a lighting system, and on the center of whose roof is a CCD camera connected to the computer; and an ethological computer image analysis system (SHANGHAI MOBILEDATUM TECH INFORMATION CO. LTD).
(§3) Laboratory animals: C57BL/6I (from Jackson Lab) (APP/PS1/TAU transgenic mice) in C57BL/6J (TAU transgenic mice). All APP/PS1/TAU transgenic mice and TAU transgenic mice belong to the mouse disease model as for Alzheimer's disease.
(§4) [1] Priscila Cagni, Mrilia Barros. Cannabinoid type I receptor ligands WIN 55,212-2 and AM251 alter anxiety-like behaviors of marmoset monkeys in an open-field test. Behavioural Brain Research 2013; 240:91-94.
(§5) Principles: Open-field test is useful for evaluation of mouse anxiety and behavior probing the outside world. By nature mice are capable of both exploring the unknown territory and protecting themselves from damage due to external potential risks. Open-field test, therefore, can test such mouse capabilities by recording their duration of stay at the marginal area and the central area (where anxiety occurs) in an open field. Meanwhile, the test as such can also measure mouse movement capabilities such as speed.

TAU transgenic mice [8] = assay: Open-field test; type: in vivo; details: medium-dose (30 mg/kg) and high-dose (45 mg/kg)
Source text: as §2, §3, §4, §5

[9] = tested on: APP/PS1/TAU transgenic mice; assay: Morris water maze test (place navigation and spatial probe); type: in vivo
Source text: (§6) Materials for water maze test: a constant-temperature swimming pool, a platform for mice, and an ethological computer image analysis system (SHANGHAI MOBILEDATUM TECH INFORMATION CO. LTD).
as §3
(§7) Principles: Morris water maze test programs comprise two parts: place navigation test and spatial probe test. The former lasted a few days; each day mice were respectively put into water from four entries several times, and the time they spent seeking the platform hidden underwater (escape latency) was recorded. When place navigation test ended, the platform was removed. The latter recorded the mouse swimming trajectory after the mice were put into water from any chosen entry, and assessed their previous memory of the platform.

TAU transgenic mice [10] = assay: as above; type: in vivo
Source text: as §6, §3, §7

[11] = Stability assessment (influencing factors, acceleration and long-term tests, Chinese Pharmacopoeia 2010); type: physicochemical; details: high temperature, high humidity, strong light
Description: Considering that prototype drug stearoyl amino acid tend to absorb moisture, cake and become yellowish during long-term storage, the stearoyl amino acid is now converted into a form of active salt thereof. And the stability of NsTyr-2K and NsTyr-2Na was tested as required for bulk pharmaceutical chemicals according to the People's Republic of China Pharmacopoeia 2010.

[12] = tested on: APP/PS1/TAU transgenic mice; assay: High plus maze test; type: in vivo; details: different doses
Source text: (§8) Materials for high plus maze: consisting of two opening arms opposite to each other and two closing arms opposite to each other, a central platform connecting the aforesaid arms, and a short, 1-cm-high damper along the edges of the opening arms (to prevent animals from slipping off the maze in the process of exploring), with the floors of the four arms and the central platform being black; the floor of the maze adjusted to be 50 cm away from the laboratory ground; and an ethological computer image analysis system (SHANGHAI MOBILEDATUM TECH INFORMATION CO. LTD).
as §3
(§9) Principles: With a couple of opening arms and another couple of closing arms, the high plus maze is useful for assessment of animal anxiety by taking advantage of animal tendency to explore a new extraneous environment as well as their fear of high and open extending arms, which form a behavioral conflict. Rodents tend to move within closing arms due to their fondness of dark, but will, out of curiosity, go into opening arms and move around there. When stimulated by a novel environment, they will engender an impulse to explore and a fear at the same time.

TAU transgenic mice [13] = assay: High plus maze test; type: in vivo
Source text: as §8, §3, §9

[14] = tested on: APP/PS1 TAU transgenic mouse; assay: Rota rod test; type: in vivo, mice; details: high-dose
Source text: Materials for rota rod test: rotary rod type fatigue tester YLS-4C (SHANGHAI MOBILEDATUM TECH INFORMATION CO. LTD).
as §3
Principles: Rota rod is useful for studying the effects of drugs upon movement coordination and fatigue resistance.

[15] = Apparent lipid-water distribution coefficient; type: physicochemical
Description: as §1

[16] = day 5, medium-dose and high-dose group, *P<0.05

In the case of `COCCOC(=O)C1=C(C)NC(C)=C(C(=O)OC(C)C)C1c1cccc([N+](=O)[O-])c1` (stereo not drawn) [nimotop, reference compound], the neurobehavioral score [1] is reported as 1.12+/−0.31.
Work on `CCCCCCCCCCCCCCCCCC(=O)N[C@@H](Cc1ccc(O)cc1)C(=O)O` [NsTyr, N-stearoyl tyrosine] yielded an AUC(0-inf) [2] of 140 ng·h/mL, an AUC(0-t) [2] of 130 ng·h/mL and a Cmax [2] of 110 ng/mL. The MRT last [2] was 1.38 h, the Tmax [2] was 45 min and the half-life [2] was 89.4 min. The solubility thermodynamic ([3]; thermodynamic from solid, water, 37° C., read-out: equilibrium solubility in water) was < 1000 µg/mL.
For `CCCCCCCCCCC[C@@H](C[C@@H]1OC(=O)[C@H]1CCCCCC)OC(=O)[C@H](CC(C)C)NC=O` [Orlistat, reference compound], the “size of epididymal fat cells” value (obese mouse model [4]; HFD III, HFD IV (NST-2K 60, 100 mg/kg/day) and HFD V (Orlistat 100 mg/kg/day) vs HFD I) was “evidently smaller fat cells than HFD I”, the “fat accumulation in liver tissues” value (obese mouse model [4]; as the administration dose increased, vs HFD I) was “the accumulation began to ease” and the obese mouse weight (obese mouse model [5]; 100 mg/kg/day, four weeks) was “can inhibit weight gain in obese mice”. For the same molecule, the “appetite (average daily food intake)” value (obese mouse model [5]; 4-week administration, high-fat diet groups) was “neither NST-2K nor Orlistat suppressed appetite”, the “perirenal fat percentage quality” value (obese mouse model [6]; HFD I blank 1.63 ± 0.10) was 1.32 ± 0.06 g/100 g weight and the “Epididymal fat percentage quality” value (obese mouse model [6]; HFD I blank 2.99 ± 0.08) was 2.66 ± 0.07 g/100 g weight. For the same molecule, the Liver percentage quality (obese mouse model [6]; HFD I blank 3.51 ± 0.07) was 3.48 ± 0.06***^ g/100 g weight.
With `CCCCCCCCCCCCCCCCCC(=O)N[C@@H](Cc1ccc(O)cc1)C(=O)[O-].CCCCCCCCCCCCCCCCCC(=O)N[C@@H](Cc1ccc(O)cc1)C(=O)[O-].[Na+].[Na+]` [NsTyr-2Na] the “duration of stay at the central activity area” value ([7]; 15, 30, 45 mg/kg) was “could not be changed”, the mouse journey ([7]; high-dose 45 mg/kg) was “could increase mouse journey” and the “duration of stay in the central area” value (TAU transgenic mice [8]) was “reduce their duration of stay in the central area”. The “movement ability (journey)” value (TAU transgenic mice [8]) was “could enhance transgenic mouse movement ability”, the “latency in place navigation test” value ([9]; day 4, dosing group vs model group) was “no significant difference” and the “latency in place navigation test” value [9, 16] was “significant difference”. For the same molecule, the “swimming time percentage in the third quadrant (probe test)” value ([9]; day 5, platform removed, high-dose group) was “statistical significance”, the “spatial probing (swimming trajectory, FIG. 11)” value ([9]; spatial probe test) was “only the high-dose group could enhance their spatial probing” and the “latency in place navigation test” value (TAU transgenic mice [10]; day 4, high-dose group vs model group) was “significant difference”. For the same molecule, the “latency in place navigation test” value (TAU transgenic mice [10]; [16]) was “significant difference”, the “swimming time percentage in the third quadrant (probe test)” value (TAU transgenic mice [10]; day 5, platform removed, medium-dose and high-dose group) was “statistical significance” and the “spatial probing (swimming trajectory, FIG. 11)” value (TAU transgenic mice [10]; spatial probe test) was “both the medium- and high-dose groups could improve their spatial probing”. For the same molecule, the stability [11] was “stable properties”, the low anxiety state [12] was “did not change” and the low-anxiety state (TAU transgenic mice [13]; different doses) was “the low-anxiety state was changed”. For the same molecule, the low-anxiety state (TAU transgenic mice [13]; high-dose, compared with the animal model group) was “significant difference”, the movement coordination [14] was “could obviously improve the phenomenon” and the “Equilibrium solubility in buffer solution” value (shortened to “Equilibrium solubility”) ([3]; pH 2.0) was 66.938 mg/L. The “Equilibrium solubility” value ([3]; pH 3.0) was 66.334 mg/L, the “Equilibrium solubility” value ([3]; pH 4.0) was 195.371 mg/L and the “Equilibrium solubility” value ([3]; pH 5.0) was 232.102 mg/L. For the same molecule, the “Equilibrium solubility” value ([3]; pH 6.0) was 274.629 mg/L, the “Equilibrium solubility” value ([3]; pH 7.0) was 318.016 mg/L and the “Equilibrium solubility” value ([3]; pH 7.4) was 374.484 mg/L. For the same molecule, the “Equilibrium solubility” value ([3]; pH 8.0) was 463.902 mg/L, the “Equilibrium solubility” value ([3]; pH 9.0) was 512.644 mg/L and the “Apparent lipid-water distribution coefficient LogP” value [15] was 1.477. The “Apparent lipid-water distribution coefficient Ko/w” value ([15]; buffer pH 2.0) was 49.913, the “Apparent lipid-water distribution coefficient LogP” value ([15]; buffer pH 2.0) was 1.698 and the “Apparent lipid-water distribution coefficient Ko/w” value ([15]; buffer pH 3.0) was 28.980. For the same molecule, the “Apparent lipid-water distribution coefficient LogP” value ([15]; buffer pH 3.0) was 1.462, the “Apparent lipid-water distribution coefficient Ko/w” value ([15]; buffer pH 4.0) was 15.224 and the “Apparent lipid-water distribution coefficient LogP” value ([15]; buffer pH 4.0) was 1.183. The “Apparent lipid-water distribution coefficient Ko/w” value ([15]; buffer pH 5.0) was 18.710, the “Apparent lipid-water distribution coefficient LogP” value ([15]; buffer pH 5.0) was 1.272 and the “Apparent lipid-water distribution coefficient Ko/w” value ([15]; buffer pH 6.0) was 19.963. For the same molecule, the “Apparent lipid-water distribution coefficient LogP” value ([15]; buffer pH 6.0) was 1.300, the “Apparent lipid-water distribution coefficient Ko/w” value ([15]; buffer pH 7.0) was 31.436 and the “Apparent lipid-water distribution coefficient LogP” value ([15]; buffer pH 7.0) was 1.497. For the same molecule, the “Apparent lipid-water distribution coefficient Ko/w” value ([15]; buffer pH 7.4) was 29.286, the “Apparent lipid-water distribution coefficient LogP” value ([15]; buffer pH 7.4) was 1.467 and the “Apparent lipid-water distribution coefficient Ko/w” value ([15]; buffer pH 8.0) was 28.704. For the same molecule, the “Apparent lipid-water distribution coefficient LogP” value ([15]; buffer pH 8.0) was 1.458, the “Apparent lipid-water distribution coefficient Ko/w” value ([15]; buffer pH 9.0) was 21.872 and the “Apparent lipid-water distribution coefficient LogP” value ([15]; buffer pH 9.0) was 1.340.
